Laboratory results published in ChEMBL document CHEMBL1201862, “PubChem BioAssay data set” (2004).
Calls of active or inactive are those of the source.

Columns and labels:
[1] = target: T1, RNA-binding protein pos-1 (Caenorhabditis elegans, UniProt G5EF15); experiment: disruptors of C. elegans POS-1 RNA interaction – biochemical, fluorescence polarization, dose response (AID 1964);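 note: purified POS-1 fused to maltose binding protein made in E. coli; potency of compounds blocking POS-1 binding to fluorescent RNA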
T1 sequence (G5EF15 whole entry): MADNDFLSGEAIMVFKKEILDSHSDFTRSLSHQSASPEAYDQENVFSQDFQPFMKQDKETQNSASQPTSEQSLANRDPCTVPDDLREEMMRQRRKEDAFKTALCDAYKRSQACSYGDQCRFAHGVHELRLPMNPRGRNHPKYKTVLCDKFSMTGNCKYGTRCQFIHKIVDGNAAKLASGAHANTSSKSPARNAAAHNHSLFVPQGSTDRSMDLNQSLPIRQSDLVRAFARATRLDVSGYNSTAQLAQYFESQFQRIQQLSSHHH

Protein Rev = Protein Rev (Human immunodeficiency virus type 1 group M subtype B (isolate HXB2)(HIV-1), UniProt P04618); experiment: blockers of HIV Rev/RRE RNA complex – biochemical, fluorescence polarization, HIV-1, dose response (AID 434976); design: species or system Human immunodeficiency virus 1
[2] = target: Female germline-specific tumor suppressor gld-1 (Caenorhabditis elegans, UniProt Q17339); experiment: blockers of GLD-1/TGE RNA complex formation – biochemical, fluorescence polarization, C. elegans, dose response (AID 2802);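 note: fluorescence polarization of labeled TGE RNA bound by purified gld-1 protein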
[3] = target: T2, Zinc finger protein mex-5 (Caenorhabditis elegans, UniProt Q9XUB2); experiment: potency of MEX-5 RNA-binding blockers – biochemical, C. elegans, fluorescence polarization, dose response (AID 1960)
T2 sequence (Q9XUB2 whole entry): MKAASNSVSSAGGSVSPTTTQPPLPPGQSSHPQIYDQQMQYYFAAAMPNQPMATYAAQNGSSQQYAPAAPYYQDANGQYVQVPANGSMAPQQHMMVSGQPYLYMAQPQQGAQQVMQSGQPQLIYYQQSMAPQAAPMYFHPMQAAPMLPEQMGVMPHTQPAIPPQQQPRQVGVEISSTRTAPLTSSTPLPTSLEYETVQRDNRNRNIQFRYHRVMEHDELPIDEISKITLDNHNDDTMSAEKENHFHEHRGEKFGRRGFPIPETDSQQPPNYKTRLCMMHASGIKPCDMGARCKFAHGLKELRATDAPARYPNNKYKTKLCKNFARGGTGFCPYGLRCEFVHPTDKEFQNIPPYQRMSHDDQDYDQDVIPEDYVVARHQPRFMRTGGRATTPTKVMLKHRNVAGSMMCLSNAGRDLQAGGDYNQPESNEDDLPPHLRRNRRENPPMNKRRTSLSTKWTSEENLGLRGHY

[4] = target: T3, Kappa-type opioid receptor (Homo sapiens, UniProt P41145); experiment: kappa opioid receptor blockers, cell-based, luminescence, beta-arrestin, SAR follow-up (AID 2285); format: functional
[5] = target: T4, Delta-type opioid receptor (Homo sapiens, UniProt P41143); experiment: delta opioid receptor blockers – image-based, SAR follow-up (AID 2357); format: functional
[6] = target: T3, Kappa-type opioid receptor; experiment: kappa opioid receptor blockers, image-based, SAR follow-up (AID 2348); format: functional
Mu-type opioid receptor [7] = target: T5, Mu-type opioid receptor (Homo sapiens, UniProt P35372); experiment: mu opioid receptor blockers – image-based, SAR follow-up (AID 2420); format: functional;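 note: compounds added before stimulation of receptor with agonist DAMGO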
[8] = target: T4, Delta-type opioid receptor; experiment: DOR agonists, SAR follow-up, image-based (AID 2370); format: functional
[9] = target: T3, Kappa-type opioid receptor; experiment: kappa opioid receptor activation potency – imaging, image-based, SAR follow-up (AID 2359); format: functional
Mu-type opioid receptor [10] = target: T5, Mu-type opioid receptor; experiment: mu opioid receptor activators, image-based, SAR follow-up (AID 2352); format: functional
[11] = HepG2 cell cytotoxicity, dose response, cytotoxicity control for non-replicating M. tuberculosis project (AID 489018); format: functional; conditions: Mycobacterium tuberculosis
[12] = THP-1 cell cytotoxicity, dose response, cytotoxicity control for non-replicating M. tuberculosis project (AID 489025); format: functional
cells = format: functional
[13] = target: T6, Nucleotide-binding oligomerization domain-containing protein 1 (Homo sapiens, UniProt Q9Y239); experiment: blockers of NOD1 pathway activity – revised, SAR follow-up (AID 2333); format: functional
T6 sequence (Q9Y239 whole entry): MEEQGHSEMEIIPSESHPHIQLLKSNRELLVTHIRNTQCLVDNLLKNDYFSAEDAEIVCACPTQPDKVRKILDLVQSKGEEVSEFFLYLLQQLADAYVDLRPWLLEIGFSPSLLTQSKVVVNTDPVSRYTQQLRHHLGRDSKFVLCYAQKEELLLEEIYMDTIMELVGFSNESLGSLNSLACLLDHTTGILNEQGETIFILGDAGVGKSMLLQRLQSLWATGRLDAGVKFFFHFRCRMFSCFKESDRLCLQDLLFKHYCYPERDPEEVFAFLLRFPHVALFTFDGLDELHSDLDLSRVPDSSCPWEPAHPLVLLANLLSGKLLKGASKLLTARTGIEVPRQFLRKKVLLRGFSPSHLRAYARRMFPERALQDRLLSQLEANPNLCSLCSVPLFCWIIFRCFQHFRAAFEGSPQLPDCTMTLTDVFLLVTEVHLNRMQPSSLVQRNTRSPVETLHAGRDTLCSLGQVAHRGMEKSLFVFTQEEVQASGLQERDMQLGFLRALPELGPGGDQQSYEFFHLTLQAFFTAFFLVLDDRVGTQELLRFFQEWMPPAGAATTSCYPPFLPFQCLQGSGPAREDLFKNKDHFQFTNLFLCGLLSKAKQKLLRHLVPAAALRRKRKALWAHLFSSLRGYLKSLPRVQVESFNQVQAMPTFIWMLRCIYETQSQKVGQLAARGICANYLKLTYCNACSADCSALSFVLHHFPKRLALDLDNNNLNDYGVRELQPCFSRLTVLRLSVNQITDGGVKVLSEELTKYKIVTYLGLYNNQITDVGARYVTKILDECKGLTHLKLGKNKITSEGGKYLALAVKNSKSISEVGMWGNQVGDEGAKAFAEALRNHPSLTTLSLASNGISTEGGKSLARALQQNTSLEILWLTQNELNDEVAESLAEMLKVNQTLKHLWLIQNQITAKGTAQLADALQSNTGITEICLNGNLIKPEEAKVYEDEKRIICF

HEK293 = experiment: cells; conditions: Homo sapiens;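 note: cells exposed to compound for 14 hours overnight before viability readout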
[14] = target: Nucleotide-binding oligomerization domain-containing protein 2 (Homo sapiens, UniProt Q9HC29); experiment: PubChem AID 2334; format: functional
Tumor necrosis factor = Tumor necrosis factor (Homo sapiens, UniProt P01375); experiment: analog potency on TNFa NF-kB signaling – cell-based, revised, SAR follow-up (AID 2337); format: functional
[15] = Vero E6 cell cytotoxicity, dose response, cytotoxicity control for non-replicating M. tuberculosis project, secondary assay (AID 492998); format: functional, VeroE6; conditions: Vero C1008
[16] = target: NACHT, LRR and PYD domains-containing protein 3 (Homo sapiens, UniProt Q96P20); experiment: NALP3 inhibitors in yeast, dose response, luminescent (AID 488799); format: functional
[17] = target: Dual specificity protein phosphatase 3 (Homo sapiens, UniProt P51452); experiment: inhibition constants for human DUSP3 – biochemical, colorimetric, SAR follow-up (AID 2004)
[18] = target: T3, Kappa-type opioid receptor; experiment: SAR analysis of small molecule agonists of the kappa opioid receptor via a luminescent beta-arrestin assay. [Related pubchem assays (depositor defined):AID1777, AID1786, AID1966, AID2133, AID2136, AID2348, AID2352, AID2357, AID2359, AID2370, AID2420, AID2478, AID2491, AID2492, AID2493, AID2497, AID2498, AID2500, AID449737, AID488822, AID488842]; format: functional

T3 sequence (P41145 whole entry): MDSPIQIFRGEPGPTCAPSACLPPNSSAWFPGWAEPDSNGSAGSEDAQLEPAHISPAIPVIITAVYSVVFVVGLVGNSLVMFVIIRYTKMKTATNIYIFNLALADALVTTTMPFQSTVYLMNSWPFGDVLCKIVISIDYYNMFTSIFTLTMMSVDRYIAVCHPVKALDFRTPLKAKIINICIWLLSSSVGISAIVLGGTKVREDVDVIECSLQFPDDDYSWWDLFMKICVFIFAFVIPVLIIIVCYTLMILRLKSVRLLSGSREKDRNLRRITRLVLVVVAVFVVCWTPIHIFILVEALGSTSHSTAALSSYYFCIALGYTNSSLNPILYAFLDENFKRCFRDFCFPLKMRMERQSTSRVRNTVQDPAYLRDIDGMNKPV
T5 sequence (P35372 whole entry): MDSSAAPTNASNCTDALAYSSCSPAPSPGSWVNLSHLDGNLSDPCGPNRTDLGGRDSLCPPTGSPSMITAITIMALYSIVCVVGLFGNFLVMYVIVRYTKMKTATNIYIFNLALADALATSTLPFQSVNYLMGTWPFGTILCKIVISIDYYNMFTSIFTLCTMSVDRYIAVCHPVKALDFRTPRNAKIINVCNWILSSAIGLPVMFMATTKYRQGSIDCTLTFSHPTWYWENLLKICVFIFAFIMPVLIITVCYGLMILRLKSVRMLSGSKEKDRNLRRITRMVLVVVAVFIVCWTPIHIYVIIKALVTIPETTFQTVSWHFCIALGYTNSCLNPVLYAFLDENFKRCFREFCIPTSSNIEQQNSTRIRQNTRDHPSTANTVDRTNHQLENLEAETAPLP
T4 sequence (P41143 whole entry): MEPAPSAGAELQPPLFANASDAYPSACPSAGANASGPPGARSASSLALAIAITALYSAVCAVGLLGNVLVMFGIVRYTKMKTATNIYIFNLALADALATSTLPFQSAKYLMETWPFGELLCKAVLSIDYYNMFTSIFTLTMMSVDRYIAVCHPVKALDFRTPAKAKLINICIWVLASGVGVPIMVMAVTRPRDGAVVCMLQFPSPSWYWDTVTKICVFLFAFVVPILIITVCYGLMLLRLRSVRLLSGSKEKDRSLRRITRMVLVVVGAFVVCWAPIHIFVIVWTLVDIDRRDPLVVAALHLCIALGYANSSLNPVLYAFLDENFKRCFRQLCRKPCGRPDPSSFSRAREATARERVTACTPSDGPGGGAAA
Chain of Tumor necrosis factor (P01375 whole entry): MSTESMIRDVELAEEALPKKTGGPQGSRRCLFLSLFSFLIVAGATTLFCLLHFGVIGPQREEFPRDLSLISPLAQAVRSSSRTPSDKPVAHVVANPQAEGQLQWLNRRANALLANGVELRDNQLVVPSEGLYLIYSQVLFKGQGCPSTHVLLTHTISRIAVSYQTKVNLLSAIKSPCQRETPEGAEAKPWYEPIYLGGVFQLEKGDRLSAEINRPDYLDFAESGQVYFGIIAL
Chain of Female germline-specific tumor suppressor gld-1 (Q17339 whole entry): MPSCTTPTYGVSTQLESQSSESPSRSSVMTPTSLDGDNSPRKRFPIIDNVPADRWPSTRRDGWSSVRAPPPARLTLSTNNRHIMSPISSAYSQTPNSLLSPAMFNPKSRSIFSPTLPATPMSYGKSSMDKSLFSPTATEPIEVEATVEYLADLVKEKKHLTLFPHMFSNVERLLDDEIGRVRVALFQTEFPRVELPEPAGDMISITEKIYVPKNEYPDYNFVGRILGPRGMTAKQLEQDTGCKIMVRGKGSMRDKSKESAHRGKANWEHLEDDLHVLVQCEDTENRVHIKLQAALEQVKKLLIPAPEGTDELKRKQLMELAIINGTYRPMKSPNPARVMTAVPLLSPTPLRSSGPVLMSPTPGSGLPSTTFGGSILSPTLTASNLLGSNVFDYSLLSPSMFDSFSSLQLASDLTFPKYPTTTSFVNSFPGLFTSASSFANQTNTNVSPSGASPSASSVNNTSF
Chain of Nucleotide-binding oligomerization domain-containing protein 2 (Q9HC29 whole entry, the tested form may be a part): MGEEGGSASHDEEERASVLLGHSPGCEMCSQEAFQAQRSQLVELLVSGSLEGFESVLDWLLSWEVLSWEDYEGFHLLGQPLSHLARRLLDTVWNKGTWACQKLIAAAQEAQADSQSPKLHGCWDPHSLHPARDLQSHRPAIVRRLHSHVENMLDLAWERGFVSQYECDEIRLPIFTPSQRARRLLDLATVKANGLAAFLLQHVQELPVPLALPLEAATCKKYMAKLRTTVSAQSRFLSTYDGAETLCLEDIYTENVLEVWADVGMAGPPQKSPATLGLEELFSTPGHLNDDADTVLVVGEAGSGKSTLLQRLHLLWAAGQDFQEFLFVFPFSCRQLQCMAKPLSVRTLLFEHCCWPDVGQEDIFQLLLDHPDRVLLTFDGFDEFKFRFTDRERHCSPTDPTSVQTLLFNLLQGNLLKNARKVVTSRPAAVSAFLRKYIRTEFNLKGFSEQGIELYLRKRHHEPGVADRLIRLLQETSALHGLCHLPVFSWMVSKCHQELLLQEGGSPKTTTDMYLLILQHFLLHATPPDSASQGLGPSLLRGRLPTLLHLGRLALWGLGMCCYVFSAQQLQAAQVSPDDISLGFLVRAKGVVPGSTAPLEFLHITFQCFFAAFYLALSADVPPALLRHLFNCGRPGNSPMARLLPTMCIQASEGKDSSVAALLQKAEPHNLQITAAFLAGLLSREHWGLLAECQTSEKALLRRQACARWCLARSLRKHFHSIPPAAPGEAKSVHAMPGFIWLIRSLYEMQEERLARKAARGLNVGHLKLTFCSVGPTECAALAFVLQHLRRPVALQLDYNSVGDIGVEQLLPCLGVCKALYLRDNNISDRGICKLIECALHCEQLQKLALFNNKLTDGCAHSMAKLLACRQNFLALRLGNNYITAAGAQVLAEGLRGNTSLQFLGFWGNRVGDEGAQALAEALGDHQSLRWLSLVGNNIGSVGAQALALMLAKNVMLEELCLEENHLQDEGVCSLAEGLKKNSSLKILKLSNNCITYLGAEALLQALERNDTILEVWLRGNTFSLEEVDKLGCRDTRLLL
Chain of NACHT, LRR and PYD domains-containing protein 3 (Q96P20 whole entry, the tested form may be a part): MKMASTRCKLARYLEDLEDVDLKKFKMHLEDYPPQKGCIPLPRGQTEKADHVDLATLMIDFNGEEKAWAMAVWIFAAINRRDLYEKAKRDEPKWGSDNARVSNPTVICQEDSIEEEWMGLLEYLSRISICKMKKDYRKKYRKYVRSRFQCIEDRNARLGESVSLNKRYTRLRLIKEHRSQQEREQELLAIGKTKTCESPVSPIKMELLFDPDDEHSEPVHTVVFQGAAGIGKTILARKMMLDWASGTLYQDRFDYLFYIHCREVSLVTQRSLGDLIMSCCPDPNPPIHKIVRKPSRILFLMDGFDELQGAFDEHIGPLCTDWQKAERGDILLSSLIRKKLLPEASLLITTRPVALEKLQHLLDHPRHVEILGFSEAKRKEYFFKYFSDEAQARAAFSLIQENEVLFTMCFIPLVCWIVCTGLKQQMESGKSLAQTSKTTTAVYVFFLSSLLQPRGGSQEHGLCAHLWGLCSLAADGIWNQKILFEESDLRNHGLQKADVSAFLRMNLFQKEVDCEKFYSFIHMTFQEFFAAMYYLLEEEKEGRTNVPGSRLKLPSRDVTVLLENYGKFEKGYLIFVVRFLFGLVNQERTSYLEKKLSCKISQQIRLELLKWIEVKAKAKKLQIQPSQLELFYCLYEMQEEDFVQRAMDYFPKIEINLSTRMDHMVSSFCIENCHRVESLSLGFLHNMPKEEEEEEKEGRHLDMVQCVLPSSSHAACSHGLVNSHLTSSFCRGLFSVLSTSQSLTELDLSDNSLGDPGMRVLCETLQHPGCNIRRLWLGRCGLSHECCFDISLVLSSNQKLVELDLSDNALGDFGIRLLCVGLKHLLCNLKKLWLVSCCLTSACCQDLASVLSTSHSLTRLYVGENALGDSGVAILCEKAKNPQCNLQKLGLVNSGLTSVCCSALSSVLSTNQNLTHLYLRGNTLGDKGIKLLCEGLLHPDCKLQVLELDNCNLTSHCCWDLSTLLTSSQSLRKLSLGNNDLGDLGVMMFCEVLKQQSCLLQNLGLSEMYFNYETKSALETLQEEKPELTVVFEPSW
Chain of Dual specificity protein phosphatase 3 (P51452 whole entry): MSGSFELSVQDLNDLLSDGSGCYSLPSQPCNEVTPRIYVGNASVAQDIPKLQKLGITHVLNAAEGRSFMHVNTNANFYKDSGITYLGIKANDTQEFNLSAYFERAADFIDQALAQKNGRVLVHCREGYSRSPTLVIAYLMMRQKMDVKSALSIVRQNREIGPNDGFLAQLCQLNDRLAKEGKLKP
Chain of Protein Rev (P04618 whole entry): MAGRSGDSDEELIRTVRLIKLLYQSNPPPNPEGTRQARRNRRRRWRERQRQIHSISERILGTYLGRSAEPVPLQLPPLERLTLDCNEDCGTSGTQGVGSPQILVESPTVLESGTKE

| SMILES | IC50 [5] | IC50 [6] | IC50 (Mu-type opioid receptor [7]) | EC50 [8] | EC50 [9] | EC50 (Mu-type opioid receptor [10]) | CC50 [12] | IC50 (cells) | CC50 [15] | other results |
| --- | --- | --- | --- | --- | --- | --- | --- | --- | --- | --- |
| O=C(CN1C(=O)C2CC=C(Cl)CC2C1=O)NCc1ccccc1 (stereo unspecified) |  |  |  |  |  |  |  |  |  | EC50 [1]: 34.1 µM (active); IC50 (Protein Rev): 25.8 µM (not active); IC50 [2]: 7.72 µM (active); EC50 [3]: 24.7 µM (active) |
| O=C(c1ccc(CNS(=O)(=O)c2ccccc2)cc1)N1CCN(Cc2ccccc2)CC1 | > 32 µM (inactive) | > 32 µM (inactive) | > 32 µM (inactive) | > 32 µM (inactive) | > 32 µM (inactive) | > 32 µM (inactive) |  |  |  | IC50 [4]: > 10 µM (inactive) |
| CC(=O)Nc1nc2ccccc2n1Cc1ccc(Cl)cc1 |  |  |  |  |  |  | 30.9 µM (active) | 1.02 µM (active) | 12.9 µM (active) | CC50 [11]: > 20 µM (active); IC50 [13]: 18.8 µM (active); IC50 (HEK293): > 20 µM (inactive); IC50 [14]: > 20 µM (inactive); IC50 (Tumor necrosis factor): > 20 µM (inactive) |
| O=c1c2cc(Cl)ccc2nc(-c2ccc([N+](=O)[O-])cc2)n1O |  |  |  |  |  |  | 22.6 µM (active) | 17.8 µM (active) | 17.3 µM (active) | IC50 [16]: 6.6 µM (active) |
| COc1cccc(/C=C2/C(=O)NC(=O)N(c3cccc(C)c3)C2=O)c1O |  |  |  |  |  |  |  |  |  | Ki [17]: 33.1 µM (inactive) |
| CCCN(Cc1cc2ccc(C)cc2[nH]c1=O)C(=O)c1ccccn1 | > 32 µM (inactive) | > 32 µM (inactive) | > 32 µM (inactive) | > 32 µM (inactive) | > 32 µM (inactive) | > 32 µM (inactive) |  |  |  | EC50 [18]: > 10 µM (inactive) |
